Data on twelve compounds can be found in publication PMC5506043, “Inhibitory effects of local anesthetics on the proteasome and their biological actions” (Scientific Reports, 2017).

The target in assay [1] is T1, 20S proteasome (Homo sapiens, UniProt P28074+P49721).
T1 construct: purchased Calbiochem
The assay can be described thus: 20S proteasome activity (chymotrypsin-like, Suc-Leu-Leu-Val-Tyr-MCA substrate). In kind it is biochemical. Conditions: for IC50: 37 °C, 1 h. The protocol: 20S Proteasome activity was assessed by fluorescence of free AMC (7-Amino-4-methylcoumarin, excitation: 380 nm, emission: 460 nm) liberated from a substrate peptide (Suc-Leu-Leu-Val-Tyr-MCA). The reaction mixture contained the 20S proteasome (500 μg/ml), the substrate peptide (10 μM) and the indicated drugs in 25 mM HEPES, 0.5 mM EDTA, 0.03% SDS, pH 7.6. The mixture was incubated at 37 °C for 1 h. AMC fluorescence liberated in the absence of drugs was taken as the basal value (100%). The fluorescence liberated in the absence of SDS was taken as the background value (0%)[13]. Most of the activity assays were conducted using an assay kit (Calbiochem), but some were conducted in hand-made buffer solutions.
Concentration dependence of the effects of each drug on the stability of the short-lived protein and the 20S proteasome activity was fitted using the following equation: B%=Bmax·[Drug]^n/(IC50^n+[Drug]^n) where, B% represents the changes in expression of the short-lived protein and the 20S proteasome activity induced by drugs at a given concentration of the [drug], and Bmax represents the maximum attainable reduction. IC50 and n are the half-maximal inhibitory concentration and Hill coefficient, respectively.

For assay [2], the target named is T1, 20S proteasome. Briefly: [3H]-pilsicainide binding assay. To be noted: displacement of [3H]-pilsicainide, 1 h, room temperature. As to the method:
Commercially available 20S proteasome was purchased from Calbiochem. LAs and their derivatives at increasing concentrations (10^–8 to 10^–2 M) were incubated with [^3H]-pilsicainide for 1 h at room temperature in buffer containing 50 mM HEPES supplemented with 1% bovine serum albumin (pH 7.4). Following the reaction termination by addition of 100% […], the bound and unbound ligands were separated by centrifugation. Specific binding was defined as the difference between binding capacities in the pellet and supernatant.
Background: In a radioligand displacement assay an active substance lowers the binding of a labelled ligand.

The next assay concerns p53-FLAG in COS7 cells. Briefly: p53-FLAG expression in transfected COS7 cells (Western blot). In kind it is cell-based. As to the method: pcDNA3/p53-FLAG was a kind gift from Dr. Nakayama (Kyushu University). pcDNA3/Mdm2 (C438A) was a kind gift from Dr. Yasuda (Tokyo Pharmaceutical College). pCR/CMV/hH1 was a kind gift from Dr. Makita (Hokkaido University). COS7 cells were maintained in Dulbecco’s modified Eagle medium (Gibco BRL)/10% fetal bovine serum at 37 °C in a 5% CO2 incubator. Cells were transfected using lipofectamine (Gibco BRL) according to the instructions provided by the manufacturer. Forty-eight hours after transfection, cells were assayed. Proteasome inhibitors or LAs were applied 36 hours after transfection. All drugs except for MG132 were dissolved in culture medium or distilled water. MG132 was dissolved in dimethyl sulfoxide (DMSO). The final concentration of DMSO in the culture or reaction medium was equal to or less than 0.01% v/v. Pilsicainide was kindly provided by Daiichi Suntory Pharmaceutical Co., Ltd. (Osaka, Japan).
(§1) The same amounts (10 μg) of protein were separated on SDS-PAGE and electro-transferred to a polyvinylidene difluoride membrane. Membranes were probed with antibodies against FLAG (1:1000, Cosmo Bio), GFP (1:1000, Molecular Probes), ubiquitin (1:1000, MBL) or β-actin (1:1000, Oncogene) and were developed using an ECL detection system. Immunoprecipitation was carried out in PBS/1% Triton X-100, 0.5% SDS, 0.25% sodium deoxycholate, 1 mM ethylenediaminetetraacetic acid (EDTA), and 10 μg/ml aprotinin, 10 μg/ml leupeptine, 10 μg/ml pepstatin and 1 mM phenylmethylsulfonylfluoride for 2 h at 4 °C. Immune complexes were collected with protein G agarose (GE Healthcare Life Science) and bound proteins were analyzed by SDS-PAGE followed by immunoblotting.
In general terms: Immunoblotting shows a protein as a band on a membrane.

Another assay has as its system p53 in MKN45 cells. The assay can be described thus: Endogenous p53 expression in MKN45 cells (Western blot). Conditions: 24 h. In kind it is cell-based. As to the method:
Cell lysates were analyzed by Western blot analysis (a). Quantitative analysis of p53-FLAG stability using densitometry is shown in (b). Each point was expressed relative to the values in the absence of drugs (100%). […] Cell lysates were analyzed by Western blot analysis (c). Quantitative analysis of the protein level of endogenous p53 was conducted using densitometry (d).
as §1

Assay [3] addresses T1, 20S proteasome. More on the design: method as in PMID 23026372. Conditions: previously reported; cited from earlier work.
Assay [4] relates to MKN45 cells. The assay can be described thus: Proliferation of MKN45 cells (MTT assay). In kind it is cell-based. To be noted: 24 h, p53-expressing cells. The source says:
Figure 4 Effects of LAs on cancer cells. (a) Effects of LAs on the proliferation of MKN45 cells. […] Proliferation of […] was estimated by MTT assays.
(Formazan colour is commonly taken as a measure of viable cells.)

The next assay relates to Kato III cells. The assay can be described thus: Proliferation of Kato III cells. In kind it is cell-based. To be noted: 24 h; pilsicainide 1 μM, lidocaine 20 μM; cells do not express p53.
Assay [5] has as its system MKN45 cells. Briefly: Tumor growth of pretreated MKN45 cells transplanted into mice. In kind it is in vivo. To be noted: MKN45 cells pretreated with drug, transplanted into the intestine of SOD SKID mice.
Assay [6] has as its target T2, wild-type 20S proteasome trypsin-like activity (Saccharomyces cerevisiae, UniProt P25043).
T2 construct: U.B. purified the yeast 20S proteasome and assayed proteasome activity; made in house; host or cells: yeast (purified from wild-type cells; inferred)
The assay can be described thus: Trypsin-like activity of the wild-type 20S proteasome. In kind it is biochemical.

In assay [7] the target is T3, wild-type 20S proteasome caspase-like activity (Saccharomyces cerevisiae, UniProt P38624).
T3 construct: U.B. purified the yeast 20S proteasome and assayed proteasome activity; made in house; host or cells: yeast (purified from wild-type cells; inferred)
Briefly: Caspase-like activity of the wild-type 20S proteasome. In kind it is biochemical.

Setting [8] is: COS7 cells transfected with p53-FLAG.
Where [9] appears, read: COS7 cells, dominant negative Mdm2 (C438A), 12 h, MG132 50 µM, pilsicainide 20 µM, lidocaine 1 mM.

Molecules are shown by their SMILES. Where two headings read alike, the source gives them in different places. Where a SMILES comes first, the peptide text is derived from it. The star is where a group is joined. Cbz = O=C(OCc1ccccc1)*

For `O=C(CC12CCCN1CCC2)Nc1ccccc1F` [2-F], on 20S proteasome [1] (in vitro), the “Effect on 20S proteasome activity (in words)” value was “partially inhibited” and it took 21.5 ± 46.8 µM to reach half-maximal inhibition (IC50).
As to `O=C(CC12CCCN1CCC2)Nc1cccc(F)c1` [3-F], at 20S proteasome [1] (in vitro), the “Effect on 20S proteasome activity (in words)” value is given as “partially inhibited” and the IC50 – broadly, the concentration at which inhibition is half-maximal – is 20.5 ± 21.8 µM.
Consider `O=C(CC12CCCN1CCC2)Nc1ccc(F)cc1` [4-F], for which the “Effect on 20S proteasome activity (in words)” value at 20S proteasome [1] (in vitro) is “partially inhibited”. The Kd – broadly, a measure of binding affinity in units of concentration – on 20S proteasome [2] came to 20 ± 3.2 µM. For the same compound, the “Expression of p53-FLAG protein (in words)” value with p53-FLAG in COS7 cells (setting [8]) is recorded as “partially increased”. In addition, the “Endogenous p53 protein level (in words)” value in the assay on p53 in MKN45 cells is listed as “increased p53 a little”.
Turning to `Cc1cccc(CCN2CCC(C(=O)c3ccc(NS(C)(=O)=O)cc3)CC2)n1` [E-4031], the “Effect on 20S proteasome activity (in words)” value on 20S proteasome [1] (in vitro) is “Neither the Ca^2+ channel blocker verapamil which contains two aromatic rings, nor the K^+ channel blocker E-4031, affected the activity”.
On to `CC(C)C[C@@H](C=O)NC(=O)[C@H](CC(C)C)NC(=O)[C@H](CC(C)C)NC(=O)OCc1ccccc1` [MG132] (Cbz-Leu-Leu-Leu-aldehyde), for which, in the assay with p53-FLAG in COS7 cells, the “Effect on p53-FLAG with co-expression of the C438A mutant of Mdm2 (in words)” value (from here on “Effect on p53-FLAG with co-expression”) is on record as “abolished the effects” and the “Expression of p53-FLAG protein (in words)” value is “increased the expression of p53-FLAG”.
With `NC1=N[C@H](O)[C@H]2[C@H]3O[C@]4(O)O[C@@H]([C@@H](O)[C@@]2(N1)[C@@H]4O)[C@]3(O)CO` [Tetrodotoxin], the “Effect on 20S proteasome activity (in words)” value on 20S proteasome [1] is “did not inhibit 20S proteasome activity”.
Take `CCN(CC)CCCN(c1ccccc1)C1Cc2ccccc2C1` [aprindine]: the “Effect on 20S proteasome activity (in words)” value on 20S proteasome [1] (in vitro) is “inhibit the 20S proteasome”.
Consider `CC(C)COCC(CN(Cc1ccccc1)c1ccccc1)N1CCCC1` (stereo not drawn) [bepridil], for which the “Inhibitory action on the proteasome (in words)” value at 20S proteasome [3] was “did not show the inhibitory action on the proteasome”.
With `CCN(CC)CC(=O)Nc1c(C)cccc1C` [lidocaine], on 20S proteasome [1] (in vitro), the “Effect on 20S proteasome activity (in words)” value is listed as “inhibited 20S proteasome activity”. Also, the affinity at 20S proteasome [2], expressed as Kd, was 21.2 ± 3.5 µM. Moreover, the “Expression of p53-FLAG protein (in words)” value in the assay on p53-FLAG in COS7 cells (setting [8]) is listed as “increased the expression of p53-FLAG”. For the same compound, in the assay with p53-FLAG in COS7 cells (setting [9]), the “Effect on p53-FLAG with co-expression” value is recorded as “abolished the effects”. Also, in the assay with p53 in MKN45 cells, the “Endogenous p53 protein level (in words)” value was “increased the p53 protein level in MKN45 cells in a dose-dependent manner”. Also, the “Proliferation of MKN45 cells (in words)” value in the assay with MKN45 cells [4] was “suppressed proliferation of MKN45 cells in a dose-dependent manner”. The “Suppression of proliferation of Kato III cells (in words)” value in the assay on Kato III cells is “not observed”. Moreover, the entries for the “Tumor growth of transplanted MKN45 cells (in words)” value with MKN45 cells [5] and in the assay on MKN45 cells [5] (listed as Lidocaine) were “significantly decreased the proliferation of MKN45 cells” and “suppression of tumor growth”, respectively.
As for `Cc1cccc(C)c1OCC(C)N` (stereo not drawn) [mexiletine], on 20S proteasome [1] (in vitro), the “Effect on 20S proteasome activity (in words)” value is “inhibit the 20S proteasome” and the IC50 worked out at 14 ± 6.3 µM.
Turning to `Cc1cccc(C)c1NC(=O)CC12CCCN1CCC2` [pilsicainide], on 20S proteasome [1] (in vitro), the “Effect on 20S proteasome activity (in words)” value is listed as “inhibited 20S proteasome activity” and the IC50 was 3.5 ± 1.5 µM. For the same compound, on 20S proteasome [2], the Kd came out at 1 ± 2.8 µM. Further, the “Trypsin-like activity inhibition (in words)” value in assay [6] is given as “not inhibited”. For the same compound, the “Caspase-like activity inhibition (in words)” value in assay [7] is “not inhibited”. Moreover, the “Expression of p53-FLAG protein (in words)” value in the assay with p53-FLAG in COS7 cells (setting [8]) is “increased the expression of p53-FLAG”. Also, in the assay on p53-FLAG in COS7 cells (setting [9]), the “Effect on p53-FLAG with co-expression” value is “abolished the effects”. Further, in the assay with p53 in MKN45 cells, the “Endogenous p53 protein level (in words)” value was “increased the p53 protein level in MKN45 cells in a dose-dependent manner”. The “Proliferation of MKN45 cells (in words)” value in the assay with MKN45 cells [4] is reported as “suppressed proliferation of MKN45 cells in a dose-dependent manner”. Also, the “Suppression of proliferation of Kato III cells (in words)” value in the assay on Kato III cells is reported as “not observed”.
Consider `COc1ccc(CCN(C)CCCC(C#N)(c2ccc(OC)c(OC)c2)C(C)C)cc1OC` (stereo not drawn) [verapamil], for which, at 20S proteasome [1], the “Effect on 20S proteasome activity (in words)” value is listed as “Neither the Ca^2+ channel blocker verapamil which contains two aromatic rings, nor the K^+ channel blocker E-4031, affected the activity”.
